Assay results published in patent US7750049B2, “O-substituted-dibenzyl urea-derivatives as TRPV1 receptor antagonists” (Pharmeste S.R.L., priority 2006, dated 2010).

Columns and labels:
[1] = target: T1, vanilloid TRPV1 receptor (Rattus norvegicus, UniProt O35433); assay: [3H]RTX radioligand binding assay in rat spinal cord membranes; details: displacement of [3H]RTX (0.4 nM), 37° C., 60 min
T1 construct: the spinal cord was removed and disrupted using a Polytron tissue homogenizer; from tissue; host or cells: spinal cord of male Sprague-Dawley rats (membranes)
Description: Male Sprague-Dawley rats with body weight between 250 to 350 g were used. For binding assays the rats were decapitated under anesthesia and the spinal cord was removed and disrupted using a Polytron tissue homogenizer in ice cold buffer containing 5 mM KCl, 5.8 mM NaCl, 0.75 mM CaCl2, 2 mM MgCl2, 320 mM sucrose, 10 mM Hepes, pH 8.6 (Szallasi and Blunberg, 1992; 1993). In competition experiments, the membranes were incubated at 37° C. for 60 min with [^3H]RTX (0.4 nM) and with increasing concentrations of test compounds in the range from 0.1 nM to 3 μM. Non-specific binding was evaluated in the presence of 1 μM RTX. Saturation and competition studies were analyzed with the Ligand program (Bradford, 1976; Munson and Rodbard, 1980).
Compounds 6a-6m displaced [^3H]RTX from its binding site in rat spinal cord membranes at low concentrations, as indicated by the Ki values reported in Table 1.

[2] = target: T2, TRPV1 (Rattus norvegicus, UniProt O35433); assay: Ca2+ fluorescence measurements in cultured rat trigeminal ganglia (capsaicin-evoked [Ca2+]i mobilization); format: cell-based; details: 30 nM capsaicin, rat trigeminal neuron cells; read-out: IC50 of inhibiting capsaicin-evoked [Ca2+]i mobilization
T2 construct: Ca^2+ Fluorescence Measurements in Cultured Rat Trigeminal Ganglia; endogenous in cells; host or cells: cultured rat trigeminal ganglion neurons (primary culture)
Description: The calibration curve was determined using a buffer containing Fura-2-AM-ester and definite concentrations of free Ca^2+. This curve was then used to convert the data obtained from F340/F380 ratio to [Ca^2+]i (nM) (Kudo, Y). The effects of pretreatments with compounds 6a-6m on the increase in [Ca^2]i produced by 30 nM capsaicin were studied.
Capsaicin (30 nM) increased [Ca^2+]i in the vast majority (95%) of rat trigeminal neuron cells, which were therefore identified as TRPV1-expressing neurons.

[3] = system: capsaicin-induced secondary allodynia; assay: Capsaicin-induced secondary allodynia in rat; format: in vivo; details: 30 μmol/kg p.o., 2 hours prior to capsaicin, 90 min after capsaicin challenge
Description: Capsaicin (5 nmols/50 μl/paw) was injected in the plantar surface of the glabrous skin of the right paw of rats anesthetized with diethyl ether (Chaplan et al., 1994). Compounds 6c and 6d were orally administrated 2 hours prior to capsaicin injection. Tactile allodynia was evaluated 90 min after capsaicin challenge. In a more extended study, compounds 6c and 6d were tested against capsaicin-induced secondary allodynia in rats.

[4] = Cytotoxicity on Hep G2 cells; format: cell-based; details: human
Description: (§1) LogD Values at pH=7.0 were calculated in silico, while the in vitro tests analysed: • metabolic stability in cryopreserved human hepatocytes; • cytotoxicity on Hep G2 cells; • cassette pharmacokinetics in rat.
The cells were cultured for 3 days, trypsinized and re-suspended in 20 ml of culture medium. The cells were then counted and diluted to obtain a final concentration suitable for seeding 40.000 cells/well in 96-well cell culture plates (200 μl/well).
The cells were seeded in columns 1 to 11 (column 12 contained medium without cells), then placed for 16-24 hours at 37° C. with 5% of CO2.

[5] = Preliminary cassette pharmacokinetic study in catheterized conscious rats; format: in vivo; details: plasma; rat, oral, cassette dosing; read-out: Pharmacokinetics in Rat Oral t1/2
Description: as §1
Compounds were administered together to rats. The compounds were stored at −20° C. when not used. The formulation, route of administration, plasma samples identification and pharmacokinetic analysis were performed according to standard protocols (Raynaud, F I et al, 2004; Manitpisitkul, P. et al., 2004; Singh S. et al., 2006).

[6] = value from Ref. 8 (Rami et al. 2006); cited from earlier work

T1 sequence (O35433 whole entry): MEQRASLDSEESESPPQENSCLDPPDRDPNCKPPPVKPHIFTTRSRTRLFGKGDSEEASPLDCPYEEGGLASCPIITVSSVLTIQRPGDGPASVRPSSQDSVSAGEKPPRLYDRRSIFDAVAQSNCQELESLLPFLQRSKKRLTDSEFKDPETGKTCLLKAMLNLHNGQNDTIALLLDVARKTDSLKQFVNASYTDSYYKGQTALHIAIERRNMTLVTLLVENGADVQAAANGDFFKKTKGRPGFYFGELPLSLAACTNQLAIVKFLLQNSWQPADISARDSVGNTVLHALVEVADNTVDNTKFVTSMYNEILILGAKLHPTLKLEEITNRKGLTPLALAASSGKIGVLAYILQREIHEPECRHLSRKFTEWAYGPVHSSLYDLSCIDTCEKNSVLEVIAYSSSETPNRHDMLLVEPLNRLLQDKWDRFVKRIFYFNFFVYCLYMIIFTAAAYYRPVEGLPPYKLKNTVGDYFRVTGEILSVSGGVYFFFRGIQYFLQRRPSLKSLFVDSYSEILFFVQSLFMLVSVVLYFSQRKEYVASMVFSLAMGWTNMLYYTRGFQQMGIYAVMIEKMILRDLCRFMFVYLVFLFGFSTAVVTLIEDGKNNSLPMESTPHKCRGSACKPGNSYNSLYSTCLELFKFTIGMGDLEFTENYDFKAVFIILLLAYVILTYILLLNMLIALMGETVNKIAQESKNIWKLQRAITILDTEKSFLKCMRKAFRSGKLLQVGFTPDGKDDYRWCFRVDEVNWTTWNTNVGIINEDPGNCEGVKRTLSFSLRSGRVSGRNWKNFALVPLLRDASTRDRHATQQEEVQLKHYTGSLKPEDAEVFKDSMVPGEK
T2 sequence (O35433 whole entry): as above

Row | Compound | Ki [1] [nM] | IC50 [2] [nM] | also measured
1 | COc1cc(CNC(=O)NCc2ccc(C(F)(F)F)cc2)c(Cl)cc1OCC(O)CO (racemic) [Compound 6c, 1-[4-(2,3-Dihydroxypropoxy)-2-chloro-5-methoxybenzyl]-3-[4-(trifluoromethyl)-benzyl]urea] | 60 | 10.2 | % of inhibition of the pro-allodinic effect of capsaicin [3]: 53.1%; IC50 [4]: 52000 nM; half-life [5]: 1.3 h
2 | COc1cc(CNC(=O)NCc2ccc(C(F)(F)F)cc2)c(Br)cc1OCC(O)CO (racemic) [Compound 6d, 1-[4-(2,3-Dihydroxypropoxy)-2-bromo-5-methoxybenzyl]-3-[4-(trifluoromethyl)-benzyl]urea] | 86 | 80 | % of inhibition of the pro-allodinic effect of capsaicin [3]: 47.9%; IC50 [4]: 70000 nM; half-life [5]: 1.08 h
3 | COc1cc(CNC(=O)NCc2ccc(C(F)(F)F)cc2)c(Cl)cc1OC[C@H](O)CO [(R)-(−)6c, 1-[4-((R)-(−)-2,3-dihydroxypropoxy)-2-chloro-5-methoxybenzyl]-3-[4-(trifluoromethyl)-benzyl]urea] | – | 7 | half-life [5]: 7.7 h
4 | COc1cc(CNC(=O)NCc2ccc(C(F)(F)F)cc2)c(Br)cc1OC[C@H](O)CO [(R)-(−)6d, 1-[4-((R)-(−)-2,3-dihydroxypropoxy)-2-bromo-5-methoxybenzyl]-3-[4-(trifluoromethyl)-benzyl]urea] | – | 53 | half-life [5]: 4.43 h
5 | COc1cc(CNC(=O)NCc2ccc(C(F)(F)F)cc2)c(Cl)cc1OC[C@@H](O)CO [(S)-(+)6c] | – | > 1000 | –
6 | COc1cc(CNC(=O)NCc2ccc(C(F)(F)F)cc2)c(Br)cc1OC[C@@H](O)CO [(S)-(+)6d] | – | > 1000 | –
7 | COc1cc(CNC(=O)NCc2ccc(C(C)(C)C)cc2)c(Cl)cc1OCCO [Compound 6a, 1-[4-(2-hydroxyethoxy)-2-chloro-5-methoxybenzyl]-3-[4-(tert-butyl)-benzyl]urea] | 175 | 859 | –
8 | O=C(Nc1ccccc1Br)N[C@@H]1CCN(c2ccc(C(F)(F)F)cn2)C1 [SB-705498, reference compound] | – | – | IC50 [4]: 20300 nM; Pharmacokinetics in Rat Oral t1/2 [6]: 180 ^Ref. 8 min

Further lines, with some results ahead:

Row | Ki [1] [nM] | IC50 [2] [nM] | Compound | also measured
9 | > 1000 | > 1000 | COc1cc(CNC(=O)NCc2ccc(C(F)(F)F)cc2)c(Cl)cc1OCCCO [Compound 6e] | –
10 | 253 | 500 | COc1cc(CNC(=O)NCc2ccc(C(C)(C)C)cc2)c(Cl)cc1OCCCO [Compound 6f] | –
11 | > 1000 | 164 | COc1cc(CNC(=O)NCc2ccc(C(F)(F)F)cc2)c(Cl)cc1OCCO [Compound 6g, 1-[4-(2-hydroxyethoxy)-2-chloro-5-methoxybenzyl]-3-[4-(trifluoromethyl)-benzyl]urea] | –
12 | 150 | 119 | COc1cc(CNC(=O)NCc2ccc(C(F)(F)F)cc2)c(Br)cc1OCCO [Compound 6h, 1-[4-(2-Hydroxyethoxy)-2-bromo-5-methoxybenzyl]-3-[4-(trifluoromethyl)-benzyl]urea] | –
13 | 273 | > 1000 | COc1cc(CNC(=O)NCc2ccc(C(F)(F)F)cc2)c(-c2ccccc2)cc1OCC(O)CO (stereo not shown) [Compound 6i, 1-[4-(2,3-dihydroxypropoxy)-2-phenyl-5-methoxybenzyl]-3-[4-(trifluoromethyl)-benzyl]urea] | –
14 | 172 | > 1000 | COc1cc(CNC(=O)NCc2ccc(C(F)(F)F)cc2)c(-c2cccnc2)cc1OCC(O)CO (stereo not shown) [Compound 6l, 1-[4-(2,3-dihydroxypropoxy)-2-(pyridin-3-yl)-5-methoxybenzyl]-3-[4-(trifluoromethyl)-benzyl]urea] | –
15 | 117 | – | COc1cc(CNC(=O)NCc2ccc(C(F)(F)F)cc2)c(-c2ccc(Cl)cc2)cc1OC[C@H](O)CO [Compound 6m, 1-[4-(2,3-dihydroxypropoxy)-2-(4-chloro)phenyl-5-methoxybenzyl]-3-[4-(trifluoromethyl)-benzyl]urea] | melting point: 174 °C
